Measurements reported in patent publication US20030228988A1, “Ozone solutions” (Otre AB, priority 2002, published 2003).
Where two headings read alike, the source gives them in different places. One block for each molecule: values may come before it.

Columns and labels:
[1] = Ozone stability in the presence of acetic and oxalic acid; settings: for increase of the lifetime of the ozone (factor) compared with pure ozone solution: acid approximately 0.01M, ozone approximately 6 ppm
Description: The following procedure was applied in the analysis of ozone concentration. Magnetic stirrer was used to obtain a homogeneous solution. The ozone concentration, pH and temperature were registered every 30 seconds, until ozone no longer could be detected.
An aqueous ozone solution with a concentration of approximately 6 ppm was tapped directly from the ozone generator into a beaker. The ozone electrode was used to register the changes in concentration. Acetic or oxalic acid was added directly to the solution. The concentration of the acids was approximately 0.01M.

[2] = Oxidation of organic acids by ozone, 13C NMR and IR before and after ozone treatment; type: physicochemical; settings: 0.1M acid bubbled with ozone for five hours
Description: The aqueous solutions of the acids were analysed using ^13C NMR and IR spectroscopy before and after treatment with ozone.
In order to verify that the organic acids had not been oxidised by ozone an additional test was made 300 ml of an aqueous solution of acid (0.1M, 30×10^−3 mol) was bubbled with ozone for five hours. The gaseous concentration of ozone was ˜100 g/m^3. The airflow was 0 2 l/minute, which gives 1.2 g ozone/h ([…]). The aqueous solutions were analysed using ^13C NMR and IR spectroscopy before and after treatment with ozone. The results are shown in FIGS. 9-12, namely that the peaks in the spectrograms of the pure acid solutions (FIGS. 9 and 11) had not changed their appearance after prolonged treatment with ozone (FIGS. 10 and 12)

[3] = Ozone stability in the presence of different surfactants (ozone electrode); type: physicochemical; settings: ozone approximately 6 ppm, surfactant approximately 0.1 mM, approximately the same pH
Description: Deionised water was used in all aqueous solutions. All experiments were made at room temperature, ˜23° C. The variation of the temperature between the different experiments was relatively small and should not have any significant effect on the outcome. All tests were made at least twice in order to verify the reproducibility. […] Magnetic stirrer was used to obtain a homogeneous solution. […] The concentration of the surfactants was approximately 0.1 mM. […] The solution was filtered to remove the formed precipitate, AgBr.

[4] = Ozone stability in the presence of different concentrations of SDS; type: physicochemical; settings: 200 mM vs 0.1 mM SDS, ozone approximately 6 ppm
Description: One of the surfactants, SDS, was tested at two different concentrations: Low concentration (0.1 mM), where the surfactant exists […], and high concentration (200 mM), where the surfactant exists in the form of both micelles and linear (paraffinic) chains. […] However, in order to obtain these states the surfactant solution has to be heated.
Magnetic stirrer was used to obtain a homogeneous solution.
SDS was added directly to the aqueous ozone solution, yielding solutions having concentrations of 0.1 mM and 200 mM with respect to SDS The result is seen in FIG. 4, namely that the higher concentration of SDS increases the lifetime of ozone by a factor 5 compared with the lower concentration.

- effect on ozone stability ([1]; FIGS. 5 and 6): positive effect on ozone stability
- increase of the lifetime of the ozone (factor) compared with pure ozone solution [1]: 2
- decomposition / reaction of the acid after treatment with ozone (13C NMR, IR) [2]: does not react with ozone
SMILES: O=C(O)C(=O)O [oxalic acid]

- increase of the lifetime of ozone compared with a pure ozone solution ([3]; ~23° C.): three to four fold
- increase of the lifetime of ozone (factor), higher concentration compared with the lower concentration [4]: 5
SMILES: CCCCCCCCCCCCOS(=O)(=O)[O-].[Na+] [SDS, sodium dodecyl sulphate]

- depletion rate of ozone relative to the depletion rate of pure ozone solution [3]: about half
SMILES: CCCCCCCCCCCCO[C@@H]1O[C@H](CO)[C@@H](O[C@H]2O[C@H](CO)[C@@H](O)[C@H](O)[C@H]2O)[C@H](O)[C@H]1O [dodecyl b-D-maltoside]

- effect on ozone stability [1]: positive effect on ozone stability
- increase of the lifetime of the ozone (factor) compared with pure ozone solution [1]: 2
SMILES: CC(=O)O [Acetic acid, acetic acid]
